Reference: patent US5474986A, “Method for treating galabiose-binding bacteria infections” (priority 1988, dated 1995)

System: E. coli HB101/pPAP5 (agglutination of human erythrocytes)
Assay: Inhibition of haemagglutination (HA inhibition) of human erythrocytes by E. coli
Type: cell-based
Conditions: for IC50: Escherichia coli, Erythrocyte; for ΔΔG^o: ΔΔG°=RTlnKrel, Krel = IC50 ratio to compound 1; for Relative potency (%): in relation to compound 1, calculated from IC50; for inhibitory power (in words): haemagglutination inhibition, compared with the methyl galabioside / unmodified galabioside
Excerpt: Bacterial strain HB101/pPAPS. Plasmid pPAP5 carries the pap gene cluster isolated from the uropathogenic E.coli isolate J96. The clone produces P pill that mediate agglutination of human erythrocytes by binding to the galabiose-containing P-blood group antigens present on the erythrocyte surface. The galabiose binding property resides in the PapG gene product which is present at the tip of the P pilus as a minor component.
HA of a 1% human P erythrocyte suspension in phosphate-buffered saline was determined for agar-grown organisms by suspending the bacteria to a Klett of 490 (ca 1×10^9 bacteria/mL). A sample of the bacterial suspension (25 μL) was serially diluted in microtiter plates containing 25 μL PBS in each well. An equal volume of erythrocyte suspension was added and after mixing, the plates were incubated at 4° C. for 18 h. The HA endpoint was defined as the dilution in the last well before erythrocyte buttons were formed. The titer was expressed as the reciprocal of the endpoint dilution.
The HA titer of the strains to be tested was determined as described above and the cells were diluted so that each strain gave a titer of 64. The concentration of each of the analogues 1-25 was adjusted to 100 mM and 25 μL of each analogue was serially diluted in microtiter plates containing 25 μL of PBS in each well. The bacterial suspension (25 μL; HA titer=64) was then added to each well. After incubation for 30 min at room temperature, human erythrocytes (1% suspension) were added by gentle mixing and the plates were incubated at 4° C. overnight. The endpoint was defined as the greatest dilution of the analogue (minimal concentration) that gave a 50% inhibition of the HA (IC50).
The IC50 -values given in the tables are mean values from 3 consecutive runs. The ratio of the IC50 -value for an inhibitor and compound 1 is the relative equilibrium constant, Krel. This value was used for the calculation of the difference free energy values (ΔΔG°) using the expression ΔΔG°=RTlnKrel. It should be stressed that the conclusions made here about the nature of the adhesin receptor is based on the assumption that all the inhibitors have similar over-all confirmations oriented in a similar way in the receptor side and that only one type of galablest-specific receptor is present in the adhesin.

[1] = Table 1, inhibition of agglutination of human erythrocytes by E. coli, mean of 3 consecutive runs
[2] = Table 2, footnote a: separate inhibition experiment where reference compound 1 showed IC50 = 0.0434 mM
[3] = Table 2, glycoside analogs, inhibition of agglutination of human erythrocytes by E. coli, mean of 3 runs
[4] = Table 2, relative to compound 1 (IC50 0.20 mM)
[5] = Table 2, in relation to compound 1 (IC50 0.20 mM)
[6] = Table 2, footnote a: separate experiment, relative to compound 1 IC50 = 0.0434 mM

Compound | IC50 [1] [µM] | IC50 [3] [µM] | ΔΔG^o (Table 1) [kcal/mol] | ΔΔG (kJmol^-1) [4] [kJmol^-1] | Relative potency (%) (Table 1) | Inhib. power (%) [5] [%] | further results
CO[C@@H]1O[C@H](CO)[C@H](O[C@H]2O[C@H](CO)[C@H](O)[C@H](O)[C@H]2O)[C@H](O)[C@H]1O [Compound 1, Galα1-4GalβOMe, reference compound] | 200 | 200 | 0 | 0.00 |  |  | IC50 [2]: 43.4 µM
CO[C@H]1C[C@@H](O)[C@@H](O[C@H]2O[C@H](CO)[C@H](O)[C@H](O)[C@H]2O)[C@@H](CO)O1 [Compound 2] | 350 |  | 0.335 |  | 56 |  | 
CO[C@@H]1O[C@H](CO)[C@H](O[C@H]2O[C@H](CO)[C@H](O)[C@H](O)[C@H]2O)C[C@H]1O [Compound 3] | 1000 |  | 0.932 |  | 19 |  | 
CO[C@@H]1O[C@H](C)[C@H](O[C@H]2O[C@H](CO)[C@H](O)[C@H](O)[C@H]2O)[C@H](O)[C@H]1O [Compound 4] | 4200 |  | 1.7 |  | 4.7 |  | 
CO[C@@H]1O[C@H](CO)[C@H](O[C@@H]2C[C@@H](O)[C@@H](O)[C@@H](CO)O2)[C@H](O)[C@H]1O [Compound 5] | 2600 |  | 1.43 |  | 7.6 |  | 
CO[C@@H]1O[C@H](CO)[C@H](O[C@H]2O[C@H](CO)[C@H](O)C[C@H]2O)[C@H](O)[C@H]1O [Compound 6] | 6500 |  | 1.96 |  | 3.0 |  | 
CO[C@@H]1O[C@H](CO)[C@H](O[C@H]2O[C@H](CO)C[C@H](O)[C@H]2O)[C@H](O)[C@H]1O [Compound 7] | 10000 |  | 2.2 |  | 1.9 |  | 
CO[C@@H]1O[C@H](CO)[C@H](O[C@H]2O[C@H](C)[C@H](O)[C@H](O)[C@H]2O)[C@H](O)[C@H]1O [Compound 8] | 3700 |  | 1.63 |  | 5.3 |  | 
CO[C@@H]1O[C@H](CO)[C@H](O[C@H]2O[C@H](CO)[C@H](O)[C@H](O)[C@H]2O)[C@H](OC)[C@H]1O [Compound 9] | 1600 |  | 1.17 |  | 12 |  | 
COC[C@H]1O[C@@H](OC)[C@H](O)[C@@H](O)[C@H]1O[C@H]1O[C@H](CO)[C@H](O)[C@H](O)[C@H]1O [Compound 10] | > 25000 |  | > 2.63 |  | < 1 |  | 
CO[C@@H]1O[C@H](CO)[C@H](O[C@H]2O[C@H](CO)[C@H](O)[C@H](OC)[C@H]2O)[C@H](O)[C@H]1O [Compound 11, Methyl 4-O-(3-O-methyl-α-D-galactopyranosyl)-β-D-galactopyranoside] | 87 |  | -0.43 |  | 220 |  | inhibitory power (in words): marked increase in the inhibitory power
CO[C@@H]1O[C@H](CF)[C@H](O[C@H]2O[C@H](CO)[C@H](O)[C@H](O)[C@H]2O)[C@H](O)[C@H]1O [Compound 12] | 9300 |  | 2.15 |  | 2.1 |  | 
CO[C@@H]1O[C@H](CO)[C@H](O[C@H]2O[C@H](CO)[C@H](F)[C@H](O)[C@H]2O)[C@H](O)[C@H]1O [Compound 13] | 3500 |  | 1.6 |  | 5.6 |  | 
CO[C@@H]1O[C@H](CO)[C@H](O[C@H]2O[C@H](CF)[C@H](O)[C@H](O)[C@H]2O)[C@H](O)[C@H]1O [Compound 14] | 350 |  | 0.323 |  | 56 |  | 
CO[C@@H]1O[C@H](CO)[C@H](O[C@H]2O[C@H](CO)[C@H](O)[C@H](O)[C@H]2O)[C@H](C)[C@H]1O [Compound 15] | 390 |  | 0.382 |  | 50 |  | 
CC[C@@H]1[C@@H](O)[C@H](OC)O[C@H](CO)[C@@H]1O[C@H]1O[C@H](CO)[C@H](O)[C@H](O)[C@H]1O [Compound 16] | 3800 |  | 1.65 |  | 5.1 |  | 
CO[C@@H]1O[C@H](CO)[C@H](O[C@H]2O[C@H](CO)[C@@H](O)[C@H](O)[C@H]2O)[C@H](O)[C@H]1O [Compound 17] | 5100 |  | 1.82 |  | 3.8 |  | 
CCO[C@@H]1O[C@H](CO)[C@H](O[C@H]2O[C@H](CO)[C@H](O)[C@H](O)[C@H]2O)[C@H](O)[C@H]1O [Compound 18] |  | 130 |  | -0.9 |  | 150 | 
CC(C)CO[C@@H]1O[C@H](CO)[C@H](O[C@H]2O[C@H](CO)[C@H](O)[C@H](O)[C@H]2O)[C@H](O)[C@H]1O [Compound 19] |  | 87 |  | -1.8 |  | 220 | 
C[Si](C)(C)CCO[C@@H]1O[C@H](CO)[C@H](O[C@H]2O[C@H](CO)[C@H](O)[C@H](O)[C@H]2O)[C@H](O)[C@H]1O [Compound 20] |  | 49 |  | -3.2 |  | 400 | 
OCC(O)CO[C@@H]1O[C@H](CO)[C@H](O[C@H]2O[C@H](CO)[C@H](O)[C@H](O)[C@H]2O)[C@H](O)[C@H]1O (stereo partly shown) [Compound 21] |  | 130 |  | -0.9 |  | 150 | 
C[Si](C)(C)CCO[C@@H]1O[C@H](CO)[C@@H](O[C@@H]2O[C@H](CO)[C@H](O[C@H]3O[C@H](CO)[C@H](O)[C@H](O)[C@H]3O)[C@H](O)[C@H]2O)[C@H](O)[C@H]1O [Compound 22] |  | 260 |  | 0.7 |  | 75 | 
CO[C@H]1O[C@H](CO)[C@H](O[C@H]2O[C@H](CO)[C@H](O)[C@H](O)[C@H]2O)[C@H](O)[C@H]1O [Compound 23] |  | 2100 |  | 5.6 |  | 9.0 | 
OC[C@H]1O[C@H](O[C@@H]2[C@H](O)[C@@H](O)C(O)O[C@@H]2CO)[C@H](O)[C@@H](O)[C@H]1O (stereo partly shown) [Compound 24] |  | 1400 |  | 4.6 |  | 14 | 
OC[C@H]1O[C@H](O[C@@H]2[C@H](O)[C@@H](O)[C@H](OCCSCCCCCCCCCSCCO[C@@H]3O[C@H](CO)[C@H](O[C@H]4O[C@H](CO)[C@H](O)[C@H](O)[C@H]4O)[C@H](O)[C@H]3O)O[C@@H]2CO)[C@H](O)[C@@H](O)[C@H]1O [Compound 25] |  | 6.8 |  | -7.8 |  | 2900 | inhibitory power (in words): very high inhibitory power
CCO[C@@H]1O[C@H](CO)[C@@H](O[C@@H]2O[C@H](CO)[C@H](O)[C@H](O)[C@H]2O)[C@H](O)[C@H]1O [Compound 26, Galβ1-4GlcβOCH2 CH3, reference compound] |  | > 25000 |  | > 11 |  | < 1.0 | 
CCCCS(=O)(=O)CC(CO[C@@H]1O[C@H](CO)[C@H](O[C@H]2O[C@H](CO)[C@H](O)[C@H](O)[C@H]2O)[C@H](O)[C@H]1O)CS(=O)(=O)CCCC [Compound 27, 3-Butylsulfonyl-2-butylsulfonylmethylpropyl 4-O-α-D-galactopyranosyl-β-D-galactopyranoside] |  |  |  |  |  |  | IC50 [2]: 2.3 µM; Inhib. power (%) [6]: 1887%; ΔΔG (kJmol^-1) [6]: -6.8 kJmol^-1
CCS[C@@H]1O[C@H](CO)[C@H](O[C@H]2O[C@H](CO)[C@H](O)[C@H](O)[C@H]2O)[C@H](O)[C@H]1O [Compound 28, Ethyl 1-thio-4-O-(α-D-galactopyranosyl)-β-D-galactopyranoside] |  |  |  |  |  |  | IC50 [2]: 16.3 µM; Inhib. power (%) [6]: 266%; ΔΔG (kJmol^-1) [6]: -2.3 kJmol^-1
